# Laboratory results as given in ChEMBL document CHEMBL5143631, “nTZDpa (non-thiazolidinedione PPARγ partial agonist) derivatives retain antimicrobial activity without improving renal toxicity” (Bioorg Med Chem Lett, 2022).
# Columns and labels:
# Staphylococcus aureus = assay: Antibacterial activity against Staphylococcus aureus assessed as inhibition of bacterial growth; type: functional
# [1] = Toxicity in renal cells (unknown origin) assessed as cell viability at 64 ug/ml relative to control; type: cell-based; details: at 64 µg/mL, read-out: Activity
SMILES,MIC (Staphylococcus aureus) [µg/mL],viability at 64 ug/ml [1] [%]
O=C(O)CCNC(=O)c1c(Oc2ccccc2)c2cc(Cl)ccc2n1Cc1ccc(Cl)cc1,4,20
O=C(O)c1c(Oc2ccc(I)cc2)c2cc(Cl)ccc2n1-c1ccc(Cl)cc1,16,20
CC(C)(C)c1ccc(Cn2c(C(=O)O)c(Oc3ccc(I)cc3)c3cc(Cl)ccc32)cc1,1,10
Clc1ccc(Cn2c(-c3nnn[nH]3)c(Oc3ccccc3)c3cc(Cl)ccc32)cc1,8,20
O=C(O)c1c(Oc2cccc(I)c2)c2cc(Cl)ccc2n1Cc1ccc(Cl)cc1,1,10
Cc1ccc(Cn2c(C(=O)O)c(Oc3ccc(I)cc3)c3cc(Cl)ccc32)cc1,8,15
Clc1ccc(Cn2c(-c3nnn[nH]3)c(Oc3ccc(I)cc3)c3cc(Cl)ccc32)cc1,> 64,25
O=C(O)CCNC(=O)c1c(Oc2ccc(I)cc2)c2cc(Cl)ccc2n1Cc1ccc(Cl)cc1,32,15
O=C(O)c1c(Oc2cccc(I)c2)c2cc(Cl)ccc2n1Cc1ccc(Br)cc1,8,15
O=C(O)c1c(Oc2ccc(I)cc2)c2cc(Cl)ccc2n1Cc1ccc(Br)cc1,2,15
O=C(O)c1c(Oc2ccc(I)cc2)c2cc(Cl)ccc2n1Cc1ccc(Cl)cc1,1,15
O=C(O)c1c(Oc2ccc(I)cc2)c2cc(Cl)ccc2n1Cc1ccc(Cl)c(Cl)c1,4,15
CN[C@H](CC(C)C)C(=O)N[C@H]1C(=O)N[C@@H](CC(N)=O)C(=O)N[C@H]2C(=O)N[C@H]3C(=O)N[C@H](C(=O)N[C@H](C(=O)O)c4cc(O)cc(O)c4-c4cc3ccc4O)[C@H](O)c3ccc(c(Cl)c3)Oc3cc2cc(c3O[C@@H]2O[C@H](CO)[C@@H](O)[C@H](O)[C@H]2O[C@H]2C[C@](C)(N)[C@H](O)[C@H](C)O2)Oc2ccc(cc2Cl)[C@H]1O [VANCOMYCIN],–,65
